Measurements reported in patent US7008905B2, “Method of combating undesired plant growth on cereals” (BASF Aktiengesellschaft, priority 2000, dated 2006).

Legend:
Type in all cases: in vivo
[1] = test system: Lamium purpureum; experiment: Post-emergence test, weed control; conditions: 2–4 weeks after treatment, rating 0-100 (100=death), Table 5
Method: (§1) These acetone solutions are diluted with water and the resulting formulations applied at dosage levels equivalent of about 0.030 to 0.240 kg per hectare of test compound per pot. After spraying the plants are placed an greenhouse benches and are cared for in the usual manner, commensurate with conventional greenhouse practices. From 2 to 4 weeks after treatment, the seedling plants are examined and rated according to the rating system provided above. A rating 0 indicates growth as untreated control, a rating 100 indicates death.

[2] = test system: Setaria viridis; experiment: Post-emergence test, weed control; conditions: 2–4 weeks after treatment, rating 0-100 (100=death), Table 5
Method: as §1

[3] = test system: Stellaria media; experiment: Post-emergence test, weed control; conditions: 2–4 weeks after treatment, rating 0-100 (100=death), Table 5
Method: as §1

[4] = test system: Polygonum convolvulus; experiment: Post-emergence test, weed control; conditions: 2–4 weeks after treatment, rating 0-100 (100=death), Table 5
Method: as §1

[5] = test system: Matricaria inodora; experiment: Post-emergence test, weed control; conditions: 2–4 weeks after treatment, rating 0-100 (100=death), Table 5
Method: as §1

[6] = test system: VIOAR; experiment: Post-emergence test, weed control; conditions: 2–4 weeks after treatment, rating 0-100 (100=death), Table 5
Method: as §1

[7] = test system: Galium aparine; experiment: Post-emergence test, weed control; conditions: 2–4 weeks after treatment, rating 0-100 (100=death), Table 5
Method: as §1

[8] = test system: Triticum aestivum variety “Monopol”; experiment: Post-emergence test, selectivity; conditions: 2–4 weeks after treatment, rating 0-100 (100=death), Table 6
Method: as §1

[9] = test system: Triticum aestivum variety “Kanzler”; experiment: Post-emergence test, selectivity; conditions: 2–4 weeks after treatment, rating 0-100 (100=death), Table 6
Method: as §1

[10] = test system: Setaria viridis; experiment: Pre-emergence test, weed control; conditions: 3 weeks after treatment, rating 0-100 (100=death), Table 1
In short: (§2)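 Herbicidal effect was scored visually on a 0–100 scale (100 = death, 0 = untreated-like) three weeks after treatment. Soil was horticultural loam sprayed just after sowing with aqueous-diluted acetone/0.4% TRITON X-155 formulations at 15–240 g a.i./ha (900 L/ha).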

[11] = test system: Apera spica-venti; experiment: Pre-emergence test, weed control; conditions: 3 weeks after treatment, rating 0-100 (100=death), Table 1
In short: as §2

[12] = test system: Matricaria inodora; experiment: Pre-emergence test, weed control; conditions: 3 weeks after treatment, rating 0-100 (100=death), Table 1
In short: as §2

[13] = test system: Lolium perenne; experiment: Pre-emergence test, weed control; conditions: 3 weeks after treatment, rating 0-100 (100=death), Table 1
In short: as §2

[14] = test system: Galium aparine; experiment: Pre-emergence test, weed control; conditions: 3 weeks after treatment, rating 0-100 (100=death), Table 1
In short: as §2

[15] = test system: Veronica persica; experiment: Pre-emergence test, weed control; conditions: 3 weeks after treatment, rating 0-100 (100=death), Table 1
In short: as §2

[16] = test system: HORVW; experiment: Pre-emergence test, selectivity; conditions: 3 weeks after treatment, rating 0-100 (100=death), Table 2
In short: as §2

[17] = test system: Hordeum vulgare variety “Mammut”; experiment: Pre-emergence test, selectivity; conditions: 3 weeks after treatment, rating 0-100 (100=death), Table 2
In short: as §2

[18] = test system: Triticum aestivum variety “Monopol”; experiment: Pre-emergence test, selectivity; conditions: 3 weeks after treatment, rating 0-100 (100=death), Table 2
In short: as §2

[19] = test system: Triticum aestivum variety “Kanzler”; experiment: Pre-emergence test, selectivity; conditions: 3 weeks after treatment, rating 0-100 (100=death), Table 2
In short: as §2

Cc1cnc(-c2ccc(C(F)(F)F)cc2)nc1Oc1cccc(C(F)(F)F)c1 [REF-1]
12: TRZAWM rating (Selectivity) ([18]; 0.030 kg/ha)
50: GALAP weed control rating ([14]; 0.060 kg/ha)
40: TRZAWK rating (Selectivity) ([9]; 0.24 kg/ha) | TRZAWK rating (Selectivity) ([19]; 0.240 kg/ha)
10: TRZAWK rating (Selectivity) ([19]; 0.030 kg/ha)
45: TRZAWM rating (Selectivity) ([8]; 0.24 kg/ha) | HORVW rating (Selectivity) ([16]; 0.030 kg/ha) | HORVWM rating (Selectivity) ([17]; 0.030 kg/ha) | HORVWM rating (Selectivity) ([17]; 0.060 kg/ha) | TRZAWM rating (Selectivity) ([18]; 0.240 kg/ha)
85: MATIN weed control rating ([5]; 0.240 kg/ha) | GALAP weed control rating ([7]; 0.060 kg/ha)
55: HORVW rating (Selectivity) ([16]; 0.060 kg/ha)
3: TRZAWM rating (Selectivity) ([18]; 0.015 kg/ha) | TRZAWK rating (Selectivity) ([19]; 0.015 kg/ha)
22: TRZAWM rating (Selectivity) ([8]; 0.06 kg/ha)
99: SETVI weed control rating ([2]; 0.030 kg/ha) | SETVI weed control rating ([2]; 0.060 kg/ha) | MATIN weed control rating ([12]; 0.015 kg/ha) | MATIN weed control rating ([12]; 0.030 kg/ha) | LOLPE weed control rating ([13]; 0.060 kg/ha)
93: LAMPU weed control rating ([1]; 0.030 kg/ha) | LAMPU weed control rating ([1]; 0.060 kg/ha) | LAMPU weed control rating ([1]; 0.120 kg/ha) | LAMPU weed control rating ([1]; 0.240 kg/ha) | VIOAR weed control rating ([6]; 0.060 kg/ha) | VIOAR weed control rating ([6]; 0.120 kg/ha) | SETVI weed control rating ([10]; 0.015 kg/ha)
15: POLCO weed control rating ([4]; 0.030 kg/ha) | TRZAWM rating (Selectivity) ([8]; 0.03 kg/ha) | GALAP weed control rating ([14]; 0.030 kg/ha)
18: TRZAWK rating (Selectivity) ([9]; 0.03 kg/ha)
5: GALAP weed control rating ([14]; 0.015 kg/ha)
90: STEME weed control rating ([3]; 0.060 kg/ha)
95: VIOAR weed control rating ([6]; 0.240 kg/ha) | LOLPE weed control rating ([13]; 0.030 kg/ha) | GALAP weed control rating ([14]; 0.240 kg/ha)
35: HORVW rating (Selectivity) ([16]; 0.015 kg/ha)
60: HORVW rating (Selectivity) ([16]; 0.120 kg/ha) | HORVWM rating (Selectivity) ([17]; 0.120 kg/ha)
100: SETVI weed control rating ([2]; 0.120 kg/ha) | SETVI weed control rating ([2]; 0.240 kg/ha) | SETVI weed control rating ([10]; 0.030 kg/ha) | SETVI weed control rating ([10]; 0.060 kg/ha) | SETVI weed control rating ([10]; 0.1 kg/ha) | SETVI weed control rating ([10]; 0.240 kg/ha) | APESV weed control rating ([11]; 0.015 kg/ha) | APESV weed control rating ([11]; 0.030 kg/ha) | APESV weed control rating ([11]; 0.060 kg/ha) | APESV weed control rating ([11]; 0.1 kg/ha) | APESV weed control rating ([11]; 0.240 kg/ha) | MATIN weed control rating ([12]; 0.060 kg/ha) | MATIN weed control rating ([12]; 0.1 kg/ha) | MATIN weed control rating ([12]; 0.240 kg/ha) | LOLPE weed control rating ([13]; 0.1 kg/ha) | LOLPE weed control rating ([13]; 0.240 kg/ha) | VERPE weed control rating ([15]; 0.015 kg/ha) | VERPE weed control rating ([15]; 0.030 kg/ha) | VERPE weed control rating ([15]; 0.060 kg/ha) | VERPE weed control rating ([15]; 0.1 kg/ha) | VERPE weed control rating ([15]; 0.240 kg/ha)
65: HORVW rating (Selectivity) ([16]; 0.240 kg/ha) | HORVWM rating (Selectivity) ([17]; 0.240 kg/ha)
92: STEME weed control rating ([3]; 0.120 kg/ha) | STEME weed control rating ([3]; 0.240 kg/ha) | VIOAR weed control rating ([6]; 0.030 kg/ha) | GALAP weed control rating ([7]; 0.120 kg/ha) | GALAP weed control rating ([7]; 0.240 kg/ha)
80: STEME weed control rating ([3]; 0.030 kg/ha) | GALAP weed control rating ([7]; 0.030 kg/ha) | LOLPE weed control rating ([13]; 0.015 kg/ha)
75: MATIN weed control rating ([5]; 0.060 kg/ha) | MATIN weed control rating ([5]; 0.120 kg/ha) | GALAP weed control rating ([14]; 0.1 kg/ha)
25: POLCO weed control rating ([4]; 0.120 kg/ha) | TRZAWK rating (Selectivity) ([9]; 0.06 kg/ha) | HORVWM rating (Selectivity) ([17]; 0.015 kg/ha) | TRZAWM rating (Selectivity) ([18]; 0.060 kg/ha) | TRZAWK rating (Selectivity) ([19]; 0.060 kg/ha) | TRZAWK rating (Selectivity) ([19]; 0.120 kg/ha)
30: TRZAWM rating (Selectivity) ([8]; 0.12 kg/ha) | TRZAWK rating (Selectivity) ([9]; 0.12 kg/ha) | TRZAWM rating (Selectivity) ([18]; 0.120 kg/ha)
70: POLCO weed control rating ([4]; 0.240 kg/ha) | MATIN weed control rating ([5]; 0.030 kg/ha)
